Consider four molecules from ChEMBL document CHEMBL5653615 (J Biol Chem, 2013).

SMILES strings stand for the structures. The source made the active and inactive calls. The rule behind the calls is not given here.

The subject of one assay is CHO-K1. Put plainly: Inhibition of Insulin receptor M1153L mutant (unknown origin) transfected in CHO-K1 cell lysate at 10 uM for 30 mins on ice followed by insulin stimulation for 10 mins by Western blot analysis. It is filed as subcellular. The settings on record: Homo sapiens, time 40.0 min. A general note: Immunoblotting shows a protein as a band on a membrane.
The target of assay [1] is Vascular endothelial growth factor receptor 1 (Homo sapiens) (UniProt P17948). Put plainly: Inhibition of human FLT1 at 18.6 nM by HotSpot assay relative to control.
The target of assay [2] is Serine/threonine-protein kinase PAK 5 (Homo sapiens) (UniProt Q9P286). Put plainly: Inhibition of human PAK5 at 18.6 nM by HotSpot assay relative to control.
Assay [3] concerns the target Receptor tyrosine-protein kinase erbB-2 (Homo sapiens) (UniProt P04626). Put plainly: Inhibition of human ERBB2 at 18.6 nM by HotSpot assay relative to control.
For assay [4], the target named is Hepatocyte growth factor receptor (Homo sapiens) (UniProt P08581). The assay is described as follows: Inhibition of human c-MET at 18.6 nM by HotSpot assay relative to control.
In assay [5] the target is Dual specificity protein kinase CLK2 (Homo sapiens) (UniProt P49760). The assay is described as follows: Inhibition of human CLK2 at 18.6 nM by HotSpot assay relative to control.
Another assay is filed under the species Homo sapiens. The assay is described as follows: Inhibition of human CDK2/cyclin A at 18.6 nM by HotSpot assay relative to control.
Assay [6] concerns the target Ribosomal protein S6 kinase alpha-2 (Homo sapiens) (UniProt Q15349). Put plainly: Inhibition of human RSK3 at 18.6 nM by HotSpot assay relative to control.
For assay [7], the target named is T1, Serine/threonine-protein kinase Nek1 (Homo sapiens) (UniProt Q96PY6).
T1 sequence (whole entry): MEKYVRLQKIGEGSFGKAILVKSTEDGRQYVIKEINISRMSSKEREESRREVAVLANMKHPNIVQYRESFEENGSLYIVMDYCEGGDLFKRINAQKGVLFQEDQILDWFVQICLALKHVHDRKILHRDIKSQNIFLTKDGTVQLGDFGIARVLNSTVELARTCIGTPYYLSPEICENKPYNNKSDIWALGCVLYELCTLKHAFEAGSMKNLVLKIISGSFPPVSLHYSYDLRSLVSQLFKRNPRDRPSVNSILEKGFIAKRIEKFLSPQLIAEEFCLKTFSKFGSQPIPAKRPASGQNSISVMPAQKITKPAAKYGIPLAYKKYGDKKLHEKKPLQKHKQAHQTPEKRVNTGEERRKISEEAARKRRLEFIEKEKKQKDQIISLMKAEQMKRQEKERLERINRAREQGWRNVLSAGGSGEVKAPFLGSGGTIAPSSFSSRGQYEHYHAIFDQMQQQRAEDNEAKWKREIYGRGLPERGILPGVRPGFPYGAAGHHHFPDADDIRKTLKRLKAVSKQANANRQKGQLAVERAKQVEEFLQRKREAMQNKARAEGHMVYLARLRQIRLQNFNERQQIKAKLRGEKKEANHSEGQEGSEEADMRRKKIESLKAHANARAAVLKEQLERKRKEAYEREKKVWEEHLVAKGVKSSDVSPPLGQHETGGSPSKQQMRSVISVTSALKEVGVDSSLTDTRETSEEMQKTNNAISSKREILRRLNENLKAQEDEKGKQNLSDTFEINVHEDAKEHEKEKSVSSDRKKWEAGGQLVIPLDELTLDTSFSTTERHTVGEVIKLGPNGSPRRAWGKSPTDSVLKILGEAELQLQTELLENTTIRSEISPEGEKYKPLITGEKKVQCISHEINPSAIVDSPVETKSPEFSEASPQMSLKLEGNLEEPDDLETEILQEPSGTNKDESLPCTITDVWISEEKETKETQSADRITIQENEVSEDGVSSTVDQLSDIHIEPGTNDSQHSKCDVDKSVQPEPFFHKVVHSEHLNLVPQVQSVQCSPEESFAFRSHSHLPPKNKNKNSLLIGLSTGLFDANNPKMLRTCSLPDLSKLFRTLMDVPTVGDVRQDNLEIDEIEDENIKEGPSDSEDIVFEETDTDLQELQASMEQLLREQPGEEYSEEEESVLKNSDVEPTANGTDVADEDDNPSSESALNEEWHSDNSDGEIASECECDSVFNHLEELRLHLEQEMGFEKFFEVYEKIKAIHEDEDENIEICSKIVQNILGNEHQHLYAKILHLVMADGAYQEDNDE
The assay is described as follows: Inhibition of human NEK1 at 500 nM by HotSpot assay relative to control.

The target of assay [8] is T2, Inhibitor of nuclear factor kappa-B kinase subunit beta (Homo sapiens) (UniProt O14920).
T2 sequence (whole entry): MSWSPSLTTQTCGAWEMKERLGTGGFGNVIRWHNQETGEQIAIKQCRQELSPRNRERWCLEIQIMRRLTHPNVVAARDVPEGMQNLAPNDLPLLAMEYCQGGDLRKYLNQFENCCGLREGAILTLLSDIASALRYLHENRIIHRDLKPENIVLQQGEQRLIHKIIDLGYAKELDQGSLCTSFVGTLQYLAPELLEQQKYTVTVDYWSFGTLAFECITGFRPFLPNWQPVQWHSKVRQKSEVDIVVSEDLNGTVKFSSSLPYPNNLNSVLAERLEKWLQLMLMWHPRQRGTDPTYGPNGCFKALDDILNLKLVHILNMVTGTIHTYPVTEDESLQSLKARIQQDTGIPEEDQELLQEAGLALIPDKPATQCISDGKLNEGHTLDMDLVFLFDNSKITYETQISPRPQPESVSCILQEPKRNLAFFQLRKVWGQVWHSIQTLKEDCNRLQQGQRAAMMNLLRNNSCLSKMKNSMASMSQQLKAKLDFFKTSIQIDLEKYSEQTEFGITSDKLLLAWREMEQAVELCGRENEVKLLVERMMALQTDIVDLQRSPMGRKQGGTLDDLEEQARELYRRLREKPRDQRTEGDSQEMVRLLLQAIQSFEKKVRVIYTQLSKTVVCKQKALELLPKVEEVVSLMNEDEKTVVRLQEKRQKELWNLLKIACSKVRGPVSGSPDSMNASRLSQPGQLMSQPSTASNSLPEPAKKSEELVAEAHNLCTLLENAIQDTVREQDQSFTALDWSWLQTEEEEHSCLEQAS
The following applies: dose 1.82 nM.
Description: Inhibition of human IKKb at 1.82 nM by HotSpot assay relative to control

In assay [9] the target is Tyrosine-protein kinase HCK (Homo sapiens) (UniProt P08631). Put plainly: Inhibition of human HCK at 1.82 nM by HotSpot assay relative to control.
The target of assay [10] is Mitogen-activated protein kinase kinase kinase 9 (Homo sapiens) (UniProt P80192). The assay is described as follows: Inhibition of human MAP3K9 at 1.82 nM by HotSpot assay relative to control.
Assay [11] concerns the target Cyclin-dependent kinase 2/cyclin E1 (Homo sapiens) (UniProt P24864+P24941). Put plainly: Inhibition of human CDK2/cyclin E at 1.82 nM by HotSpot assay relative to control. It is filed as protein-complex assay.
For assay [12], the target named is Epidermal growth factor receptor (Homo sapiens) (UniProt P00533). The assay is described as follows: Inhibition of human EGFR at 1.82 nM by HotSpot assay relative to control.
In assay [13] the target is Tyrosine-protein kinase Blk (Homo sapiens) (UniProt P51451). Put plainly: Inhibition of human BLK at 1.82 nM by HotSpot assay relative to control.

What is called inhibition is the change of the read-out against control, counted positive when it falls.

Sequence of Tyrosine-protein kinase Blk (Homo sapiens) (P51451 2-505 limits assumed): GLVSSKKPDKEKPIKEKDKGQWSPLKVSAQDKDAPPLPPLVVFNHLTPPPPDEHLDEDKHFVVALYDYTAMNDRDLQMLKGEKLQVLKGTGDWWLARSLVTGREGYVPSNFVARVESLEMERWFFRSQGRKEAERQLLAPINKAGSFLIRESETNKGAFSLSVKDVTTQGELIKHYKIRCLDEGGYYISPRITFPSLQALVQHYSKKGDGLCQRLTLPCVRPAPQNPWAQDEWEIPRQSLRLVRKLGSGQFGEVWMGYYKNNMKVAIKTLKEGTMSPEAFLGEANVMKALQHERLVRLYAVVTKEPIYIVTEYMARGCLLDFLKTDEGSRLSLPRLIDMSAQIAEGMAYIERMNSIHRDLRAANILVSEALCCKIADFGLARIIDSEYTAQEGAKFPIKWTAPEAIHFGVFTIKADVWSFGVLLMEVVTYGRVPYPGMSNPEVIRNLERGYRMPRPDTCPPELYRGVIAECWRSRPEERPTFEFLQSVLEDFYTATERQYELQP
Sequence of Vascular endothelial growth factor receptor 1 (Homo sapiens) (P17948 whole entry): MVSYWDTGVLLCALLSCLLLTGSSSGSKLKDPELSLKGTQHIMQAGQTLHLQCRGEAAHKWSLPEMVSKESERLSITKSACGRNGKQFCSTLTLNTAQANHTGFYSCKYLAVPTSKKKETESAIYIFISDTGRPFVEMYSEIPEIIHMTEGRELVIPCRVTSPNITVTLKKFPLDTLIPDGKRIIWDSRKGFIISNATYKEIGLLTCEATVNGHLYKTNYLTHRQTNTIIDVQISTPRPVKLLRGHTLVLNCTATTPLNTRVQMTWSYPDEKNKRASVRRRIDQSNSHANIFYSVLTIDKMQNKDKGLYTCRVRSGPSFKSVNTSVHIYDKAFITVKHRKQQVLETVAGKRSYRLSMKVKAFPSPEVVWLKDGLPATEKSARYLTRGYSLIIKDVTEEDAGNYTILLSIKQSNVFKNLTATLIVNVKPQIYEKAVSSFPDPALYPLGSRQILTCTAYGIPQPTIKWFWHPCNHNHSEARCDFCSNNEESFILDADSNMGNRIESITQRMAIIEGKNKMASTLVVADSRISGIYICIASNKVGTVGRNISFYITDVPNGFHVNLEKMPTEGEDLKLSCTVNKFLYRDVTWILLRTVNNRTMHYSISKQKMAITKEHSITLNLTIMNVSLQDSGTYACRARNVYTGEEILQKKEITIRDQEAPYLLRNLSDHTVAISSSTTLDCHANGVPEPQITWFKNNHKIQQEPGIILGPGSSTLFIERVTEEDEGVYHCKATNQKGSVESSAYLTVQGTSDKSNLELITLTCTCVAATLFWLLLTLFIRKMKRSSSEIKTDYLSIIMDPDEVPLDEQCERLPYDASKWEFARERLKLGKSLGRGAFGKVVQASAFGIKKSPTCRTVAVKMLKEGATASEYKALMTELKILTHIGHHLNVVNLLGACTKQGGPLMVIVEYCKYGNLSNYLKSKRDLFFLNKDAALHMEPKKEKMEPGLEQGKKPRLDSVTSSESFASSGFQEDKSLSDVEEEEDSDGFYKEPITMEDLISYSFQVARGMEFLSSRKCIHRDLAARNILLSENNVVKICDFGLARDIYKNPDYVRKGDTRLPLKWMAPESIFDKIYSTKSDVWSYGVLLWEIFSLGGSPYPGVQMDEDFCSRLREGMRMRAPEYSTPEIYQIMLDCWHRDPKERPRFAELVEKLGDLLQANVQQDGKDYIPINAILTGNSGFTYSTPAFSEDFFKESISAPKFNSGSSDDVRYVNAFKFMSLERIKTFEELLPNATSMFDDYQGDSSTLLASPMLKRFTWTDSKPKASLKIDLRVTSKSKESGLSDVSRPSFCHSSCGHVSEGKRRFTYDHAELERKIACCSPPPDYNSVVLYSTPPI
Sequence of Dual specificity protein kinase CLK2 (Homo sapiens) (P49760 whole entry, looked up): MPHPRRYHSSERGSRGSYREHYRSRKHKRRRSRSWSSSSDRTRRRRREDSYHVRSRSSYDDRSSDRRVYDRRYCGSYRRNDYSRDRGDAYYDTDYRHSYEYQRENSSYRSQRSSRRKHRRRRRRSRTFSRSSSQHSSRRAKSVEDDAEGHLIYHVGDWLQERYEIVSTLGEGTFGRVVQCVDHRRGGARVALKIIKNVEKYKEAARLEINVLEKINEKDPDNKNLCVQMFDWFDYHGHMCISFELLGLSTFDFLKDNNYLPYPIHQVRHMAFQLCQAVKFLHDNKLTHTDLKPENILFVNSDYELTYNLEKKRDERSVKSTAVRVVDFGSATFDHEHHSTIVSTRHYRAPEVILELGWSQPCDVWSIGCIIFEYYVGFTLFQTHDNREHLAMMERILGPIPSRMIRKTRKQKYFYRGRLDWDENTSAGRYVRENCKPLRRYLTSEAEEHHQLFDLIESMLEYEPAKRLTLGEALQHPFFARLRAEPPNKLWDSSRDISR
Sequence of Tyrosine-protein kinase HCK (Homo sapiens) (P08631 2-526 limits assumed): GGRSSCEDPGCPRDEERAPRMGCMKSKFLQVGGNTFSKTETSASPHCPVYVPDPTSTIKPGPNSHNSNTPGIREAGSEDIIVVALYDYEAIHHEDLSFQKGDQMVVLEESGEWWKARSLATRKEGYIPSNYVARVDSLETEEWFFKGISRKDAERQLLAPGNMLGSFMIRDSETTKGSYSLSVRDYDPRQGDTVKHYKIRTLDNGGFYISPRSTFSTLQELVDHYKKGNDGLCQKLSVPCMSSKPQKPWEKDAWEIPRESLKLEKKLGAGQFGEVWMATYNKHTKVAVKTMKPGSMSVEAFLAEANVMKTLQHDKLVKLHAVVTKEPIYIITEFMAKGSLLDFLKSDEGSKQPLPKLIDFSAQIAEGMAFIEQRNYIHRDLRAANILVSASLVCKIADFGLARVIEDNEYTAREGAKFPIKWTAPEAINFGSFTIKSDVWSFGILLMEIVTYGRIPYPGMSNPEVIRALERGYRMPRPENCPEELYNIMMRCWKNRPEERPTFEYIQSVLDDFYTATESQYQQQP
Sequence of Hepatocyte growth factor receptor (Homo sapiens) (P08581 whole entry): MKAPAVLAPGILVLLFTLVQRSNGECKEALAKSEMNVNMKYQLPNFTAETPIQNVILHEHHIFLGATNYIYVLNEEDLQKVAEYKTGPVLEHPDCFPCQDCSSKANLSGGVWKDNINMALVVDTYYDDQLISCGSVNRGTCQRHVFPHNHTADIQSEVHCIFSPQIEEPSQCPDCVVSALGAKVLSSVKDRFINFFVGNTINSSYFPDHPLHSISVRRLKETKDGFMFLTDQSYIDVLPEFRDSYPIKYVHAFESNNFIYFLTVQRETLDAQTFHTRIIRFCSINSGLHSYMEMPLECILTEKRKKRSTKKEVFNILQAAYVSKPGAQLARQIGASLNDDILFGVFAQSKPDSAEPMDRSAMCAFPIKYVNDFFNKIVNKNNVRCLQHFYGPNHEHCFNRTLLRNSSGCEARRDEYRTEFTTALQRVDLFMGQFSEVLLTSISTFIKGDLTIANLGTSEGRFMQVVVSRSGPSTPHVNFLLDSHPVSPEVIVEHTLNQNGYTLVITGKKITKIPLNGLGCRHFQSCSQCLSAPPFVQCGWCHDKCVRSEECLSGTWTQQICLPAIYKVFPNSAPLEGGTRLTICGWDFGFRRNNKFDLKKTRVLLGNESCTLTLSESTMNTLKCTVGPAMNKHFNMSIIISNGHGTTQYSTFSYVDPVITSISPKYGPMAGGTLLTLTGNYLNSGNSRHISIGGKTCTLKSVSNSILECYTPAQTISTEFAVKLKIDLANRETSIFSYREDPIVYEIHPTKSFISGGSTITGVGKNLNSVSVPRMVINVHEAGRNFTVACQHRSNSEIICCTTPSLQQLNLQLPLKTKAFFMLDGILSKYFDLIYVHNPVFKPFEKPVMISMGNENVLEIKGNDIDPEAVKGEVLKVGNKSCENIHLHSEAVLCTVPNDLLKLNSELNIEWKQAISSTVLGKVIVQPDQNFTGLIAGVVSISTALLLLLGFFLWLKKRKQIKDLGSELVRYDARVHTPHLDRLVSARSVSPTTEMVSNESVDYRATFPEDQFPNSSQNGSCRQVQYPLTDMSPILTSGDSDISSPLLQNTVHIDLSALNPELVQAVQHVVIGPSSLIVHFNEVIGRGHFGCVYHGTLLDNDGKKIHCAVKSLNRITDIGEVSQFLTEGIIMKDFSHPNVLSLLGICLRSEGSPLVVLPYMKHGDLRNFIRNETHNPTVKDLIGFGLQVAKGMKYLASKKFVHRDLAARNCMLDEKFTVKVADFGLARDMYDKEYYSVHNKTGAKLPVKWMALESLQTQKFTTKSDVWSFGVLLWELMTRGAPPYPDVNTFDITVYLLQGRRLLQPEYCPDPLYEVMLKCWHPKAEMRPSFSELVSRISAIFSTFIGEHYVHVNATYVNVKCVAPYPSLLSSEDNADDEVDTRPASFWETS
Sequence of Ribosomal protein S6 kinase alpha-2 (Homo sapiens) (Q15349 whole entry): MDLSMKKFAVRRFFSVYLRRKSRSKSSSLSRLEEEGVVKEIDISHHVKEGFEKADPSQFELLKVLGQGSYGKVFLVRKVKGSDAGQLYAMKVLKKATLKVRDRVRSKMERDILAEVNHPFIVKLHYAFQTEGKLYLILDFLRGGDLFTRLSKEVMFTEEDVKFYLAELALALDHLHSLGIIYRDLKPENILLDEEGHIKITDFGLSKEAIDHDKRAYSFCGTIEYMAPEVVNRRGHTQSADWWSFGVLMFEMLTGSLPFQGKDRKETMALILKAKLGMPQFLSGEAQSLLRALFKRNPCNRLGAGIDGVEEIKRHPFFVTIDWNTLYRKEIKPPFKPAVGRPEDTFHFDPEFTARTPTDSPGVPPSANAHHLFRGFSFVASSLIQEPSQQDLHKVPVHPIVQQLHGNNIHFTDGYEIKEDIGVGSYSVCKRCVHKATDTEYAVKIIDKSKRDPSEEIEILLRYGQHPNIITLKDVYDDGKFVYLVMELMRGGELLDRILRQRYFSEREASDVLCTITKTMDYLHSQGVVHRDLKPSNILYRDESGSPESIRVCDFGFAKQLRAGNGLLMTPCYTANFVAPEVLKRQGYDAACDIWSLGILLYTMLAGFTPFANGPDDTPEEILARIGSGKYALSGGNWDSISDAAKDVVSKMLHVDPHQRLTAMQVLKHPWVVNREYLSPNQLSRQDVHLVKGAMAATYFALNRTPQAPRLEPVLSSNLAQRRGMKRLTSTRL

With `Oc1n[nH]c2nnc(-c3c(-c4ccccc4)nn4ccccc34)cc12`, the inhibition result in the assay on CHO-K1 is “inactive”.
Take `C[C@]1(O)C[C@@H](c2nc(-c3ccc4ccc(-c5ccccc5)nc4c3)c3c(N)nccn32)C1`: the inhibition in [1] was -4.23%; in [2] it was -1.6%; in [3], 1.71%; in assay [4] it was -4.38%; in assay [5], 4.4%; in the assay filed under Homo sapiens, -1.46%. Besides, the inhibition in assay [6] is -2.23%.
`Nc1n[nH]c2nnc(-c3c(-c4ccccc4)nn4ccccc34)cc12`: in assay [7], the inhibition is -9.24%.
Turning to `C[C@@]1(C(=O)Nc2ccc(F)nc2)CCCN1c1nc(Nc2cc(C3CC3)n[nH]2)c2cccn2n1`, the inhibition in assay [8] was -5.57%; in assay [9], 9.36%; in [10] it was 2.63%; in [11], 3.51%; in assay [12] it was -6.78%; in [13] it was -5.89%.
